These results are taken from publication PMC12518037, “Design, Synthesis, Biological Evaluation, and In Silico Study of Tetrahydropyridines as Prospective Monoamine Oxidase Inhibitors” (ChemistryOpen, 2025).

The target of test [1] is T1, MAO‐A (Homo sapiens, UniProt P21397).
T1 sequence (P21397 1-527): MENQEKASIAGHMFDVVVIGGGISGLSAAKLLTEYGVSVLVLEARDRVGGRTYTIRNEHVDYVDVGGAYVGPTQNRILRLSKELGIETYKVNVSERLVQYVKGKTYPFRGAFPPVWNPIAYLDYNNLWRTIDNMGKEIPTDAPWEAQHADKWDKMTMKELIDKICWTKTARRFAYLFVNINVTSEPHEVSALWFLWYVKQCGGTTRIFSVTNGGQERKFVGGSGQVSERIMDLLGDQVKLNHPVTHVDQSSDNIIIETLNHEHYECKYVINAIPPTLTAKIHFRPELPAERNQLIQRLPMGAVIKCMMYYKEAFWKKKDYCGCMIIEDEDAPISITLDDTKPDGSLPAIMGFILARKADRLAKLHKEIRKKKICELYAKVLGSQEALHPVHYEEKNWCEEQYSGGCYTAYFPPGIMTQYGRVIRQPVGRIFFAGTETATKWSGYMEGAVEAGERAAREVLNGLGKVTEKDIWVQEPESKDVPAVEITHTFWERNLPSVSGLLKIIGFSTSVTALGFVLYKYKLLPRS
Kind of test: MAO-A inhibition assay (Amplex red fluorescence, tyramine substrate). In kind it is biochemical. Particulars: percent inhibition observed at 100 μM. The protocol:
(§1) The range of compounds used in the study started at 1 mM for the initial screening to determine the percentage of inhibition. […] For 10 minutes, the reaction mixture was incubated at 37 °C. Tyramine, a substrate with a final concentration of 0.30 mM, was added to each well after 15 minutes, followed by 10 μL of Amplex red, a fluorogenic substrate. The FLUOstar Omega fluorescence plate reader (BMG Labtech GmbH, Ortenberg, Germany) was used to detect the change in fluorescence.

The target in test [2] is T2, MAO‐B (Homo sapiens, UniProt P27338).
T2 sequence (P27338 2-520): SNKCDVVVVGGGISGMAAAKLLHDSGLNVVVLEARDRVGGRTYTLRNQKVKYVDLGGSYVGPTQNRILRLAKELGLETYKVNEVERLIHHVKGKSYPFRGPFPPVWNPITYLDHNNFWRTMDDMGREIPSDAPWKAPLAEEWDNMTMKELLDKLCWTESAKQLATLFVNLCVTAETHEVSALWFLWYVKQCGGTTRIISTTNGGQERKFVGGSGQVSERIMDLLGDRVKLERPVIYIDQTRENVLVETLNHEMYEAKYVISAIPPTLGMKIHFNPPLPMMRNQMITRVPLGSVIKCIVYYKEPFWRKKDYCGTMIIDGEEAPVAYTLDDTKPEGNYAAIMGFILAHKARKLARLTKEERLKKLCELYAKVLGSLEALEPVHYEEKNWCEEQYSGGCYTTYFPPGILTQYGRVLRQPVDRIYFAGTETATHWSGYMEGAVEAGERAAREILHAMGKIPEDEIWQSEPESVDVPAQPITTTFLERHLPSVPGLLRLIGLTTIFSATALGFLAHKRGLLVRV
Kind of test: MAO-B inhibition assay (Amplex red fluorescence, tyramine substrate). The format is biochemical. Particulars: percent inhibition observed at 100 μM. As to the method:
as §1

Bounds are passed on as bounds.

By inhibition is commonly meant the change of the read-out against control, counted positive when it falls. Low readings indicate a response near the control, high ones a response far below the control. On to `CCOC(=O)C1=C(Nc2ccc(C)cc2)CC(c2ccc(Cl)cc2)N(c2ccc(C)cc2)C1c1ccc(Cl)cc1` (centres unmarked) [4 j, Ethyl 4‐(p–toluidino)‐2,6‐bis(4‐chlorophenyl)‐1‐p–tolyl‐1,2,5,6‐tetrahydropyridine‐3‐carboxylate], for which the inhibition at 100 µM in test [1] and in test [2] was < 50% each time.
In test [1], `CCOC(=O)C1=C(Nc2ccc(Cl)cc2)CC(c2ccccc2)N(c2ccc(Cl)cc2)C1c1ccccc1` (centres unmarked) [4 b, Ethyl 1‐(4‐chlorophenyl)‐4‐(4‐chlorophenylamino)‐2,6‐diphenyl‐1,2,5,6‐tetrahydropyridine‐3‐carboxylate] displayed an inhibition at 100 µM of 40%.
For `CCOC(=O)C1=C(Nc2ccc(OC)cc2)CC(c2ccc(Cl)cc2)N(c2ccc(OC)cc2)C1c1ccc(Cl)cc1` (centres unmarked) [4 i, Ethyl 2,6‐bis(4‐chlorophenyl)‐1‐(4‐methoxyphenyl)‐4‐(4‐methoxyphenylamino)‐1,2,5,6‐tetrahydropyridine‐3‐carboxylate], the inhibition at 100 µM in test [1] and in test [2] was < 50% in each case.
Consider `CCOC(=O)C1=C(Nc2ccc(Br)cc2)CC(c2ccc([N+](=O)[O-])cc2)N(c2ccc(Br)cc2)C1c1ccc([N+](=O)[O-])cc1` (centres unmarked) [4 m, Ethyl 1‐(4‐bromophenyl)‐4‐(4‐bromophenylamino)‐2,6‐bis(4‐nitrophenyl)‐1,2,5,6‐tetrahydropyridine‐3‐carboxylate], for which, in test [2], the inhibition at 100 µM worked out at 46%.
Molecule `CCOC(=O)C1=C(Nc2ccc(Cl)cc2)CC(c2ccc([N+](=O)[O-])cc2)N(c2ccc(Cl)cc2)C1c1ccc([N+](=O)[O-])cc1` (centres unmarked) [4 l, Ethyl 1‐(4‐chlorophenyl)‐4‐(4‐chlorophenylamino)‐2,6‐bis(4‐nitrophenyl)‐1,2,5,6‐tetrahydropyridine‐3‐carboxylate] displayed an inhibition at 100 µM in test [2] of 23%.
In the case of `CCOC(=O)C1=C(Nc2ccc(Br)cc2)CC(c2ccc(Cl)cc2)N(c2ccc(Br)cc2)C1c1ccc(Cl)cc1` (centres unmarked) [4 h, Ethyl 1‐(4‐bromophenyl)‐4‐(4‐bromophenylamino)‐2,6‐bis(4‐chlorophenyl)‐1,2,5,6‐tetrahydropyridine‐3‐carboxylate], the inhibition at 100 µM in test [1] is < 50%.
